Data published in ChEMBL document CHEMBL1828496 (Eur J Med Chem, 2011).

Columns and labels:
[1] = target: T1, Amine oxidase [flavin-containing] A (Homo sapiens, UniProt P21397); test: Inhibition of human recombinant MAO-A expressed in baculovirus infected BTI-TN-5B1-4 cells assessed as production of hydrogen peroxide from p-tyramine at 100 uM after 15 mins by microplate fluorescence assay; conditions: for inhibition (INH): human, bti-tn-5b1-4, 0.25 h, 100 µM; for inhibition at 100 µM: BTI-TN-5B1-4, human, 0.25 h
T1 sequence (P21397 whole entry): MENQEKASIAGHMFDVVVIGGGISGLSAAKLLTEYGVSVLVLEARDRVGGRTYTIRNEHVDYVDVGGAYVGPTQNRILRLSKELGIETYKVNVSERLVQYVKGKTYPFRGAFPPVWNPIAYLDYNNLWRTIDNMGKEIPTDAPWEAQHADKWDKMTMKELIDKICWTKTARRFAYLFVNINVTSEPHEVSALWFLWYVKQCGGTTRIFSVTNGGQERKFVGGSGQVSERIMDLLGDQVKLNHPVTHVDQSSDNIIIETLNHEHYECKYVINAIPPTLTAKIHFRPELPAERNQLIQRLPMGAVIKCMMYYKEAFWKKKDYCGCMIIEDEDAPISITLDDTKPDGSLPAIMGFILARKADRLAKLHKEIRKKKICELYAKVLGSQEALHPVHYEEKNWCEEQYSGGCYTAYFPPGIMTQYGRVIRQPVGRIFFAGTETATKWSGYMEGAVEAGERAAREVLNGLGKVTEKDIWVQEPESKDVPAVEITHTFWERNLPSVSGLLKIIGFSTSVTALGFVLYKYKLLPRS

[2] = target: T2, Amine oxidase [flavin-containing] B (Homo sapiens, UniProt P27338); test: Inhibition of human recombinant MAO-B expressed in baculovirus infected BTI-TN-5B1-4 cells assessed as production of hydrogen peroxide from p-tyramine at 100 uM after 15 mins by microplate fluorescence assay; conditions: for inhibition at 100 µM: BTI-TN-5B1-4, human, 0.25 h; for inhibition (INH): human, bti-tn-5b1-4, 0.25 h, 100 µM
T2 sequence (P27338 whole entry): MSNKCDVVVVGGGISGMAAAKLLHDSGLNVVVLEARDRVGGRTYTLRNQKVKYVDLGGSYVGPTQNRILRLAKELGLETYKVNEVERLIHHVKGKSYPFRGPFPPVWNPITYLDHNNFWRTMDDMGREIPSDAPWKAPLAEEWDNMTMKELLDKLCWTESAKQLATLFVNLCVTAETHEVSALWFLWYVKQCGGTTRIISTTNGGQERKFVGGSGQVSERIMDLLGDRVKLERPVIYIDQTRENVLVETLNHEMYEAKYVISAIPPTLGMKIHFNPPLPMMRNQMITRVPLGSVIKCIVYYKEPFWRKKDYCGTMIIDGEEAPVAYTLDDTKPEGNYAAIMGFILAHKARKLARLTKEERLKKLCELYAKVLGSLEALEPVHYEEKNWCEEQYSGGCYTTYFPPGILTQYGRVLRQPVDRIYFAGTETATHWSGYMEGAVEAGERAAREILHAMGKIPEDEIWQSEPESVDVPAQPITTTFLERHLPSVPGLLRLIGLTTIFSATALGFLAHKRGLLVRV

[3] = target: T1, Amine oxidase [flavin-containing] A; test: Inhibition of human recombinant MAO-A expressed in baculovirus infected BTI-TN-5B1-4 cells assessed as production of hydrogen peroxide from p-tyramine after 15 mins by microplate fluorescence assay
[4] = target: T2, Amine oxidase [flavin-containing] B; test: biochemical; type: cell-based, BTI-TN-5B1-4
Description: Inhibition of human recombinant MAO-B expressed in baculovirus infected BTI-TN-5B1-4 cells assessed as production of hydrogen peroxide from p-tyramine after 15 mins by microplate fluorescence assay

Homo sapiens = species on record: Homo sapiens; test: Selectivity ratio of IC50 for human recombinant MAO-A to IC50 for human recombinant MAO-B

Compound	inhibition (INH) [1]	inhibition at 100 µM [2] [%]	IC50 [3] [µM]	IC50 [4] [µM]	Ratio IC50 (Homo sapiens)	inhibition (INH) [2]	inhibition at 100 µM [1] [%]
CC(=O)c1cc2cc(C)ccc2oc1=O	Not Active	40					
O=C(NNc1ccc([N+](=O)[O-])cc1[N+](=O)[O-])c1cc2ccccc2oc1=O			60.5	56.1	1.08		
CCOC(=O)c1cc2cc(Br)cc(Br)c2oc1=O	Not Active	40					
CCOC(=O)c1cc2cc(Cl)cc(Br)c2oc1=O	Not Active			17.5	> 5.7		
CC(=O)c1cc2cc(Br)cc(Br)c2oc1=O	Not Active			0.2	> 500		
O=C(O)c1cc2ccc(OCc3ccc(Cl)c(Cl)c3)cc2oc1=O	Not Active			0.41	> 244		
O=C(O)c1cc2cc(Cl)cc(Br)c2oc1=O	Not Active					Not Active	
COc1ccc2oc(=O)c(C(=O)O)cc2c1	Not Active					Not Active	
COc1ccc2cc(C(=O)O)c(=O)oc2c1	Not Active	40					
CC(=O)c1cc2ccc(O)cc2oc1=O	Not Active					Not Active	
CC(=O)c1cc2cc(Cl)cc(Br)c2oc1=O			55.2	0.14	394		
CC(=O)c1cc2cc(Br)ccc2oc1=O		40	51.6		< 0.52		
COc1ccc2cc(C(C)=O)c(=O)oc2c1				15.4	> 6.5		40
CCOC(=O)c1cc2ccc(N(CC)CC)cc2oc1=O	Not Active			45.5	> 2.2		
O=C(O)c1cc2cccc(O)c2oc1=O		40	59.6		< 0.6		
CC(=O)c1cc2cc(I)cc(I)c2oc1=O	Not Active					Not Active	
CCOC(=O)c1cc2cccc(O)c2oc1=O			40.5	14.8	2.7		
O=C(O)c1cc2ccc(OC3CCCCCC3)cc2oc1=O	Not Active			8.62	> 11.6		
CC(=O)c1cc2cccc(O)c2oc1=O			39.4	42.1	0.93		
CC(=O)c1cc2cc(O)ccc2oc1=O				64.2	> 1.6		40
CCOC(=O)c1cc2ccc(OC)cc2oc1=O				23.5	> 4.3		40
O=C(O)c1cc2cc(I)cc(I)c2oc1=O	Not Active			17.8	> 5.6		
CCOC(=O)c1cc2ccc(O)cc2oc1=O	Not Active					Not Active	
O=C(O)c1cc2cc(Br)cc(Br)c2oc1=O	Not Active					Not Active	
CCN(CC)c1ccc2cc(C(C)=O)c(=O)oc2c1	Not Active			18.1	> 5.5		
O=C(O)c1cc2cc(O)ccc2oc1=O		40	40.2		< 0.4		
O=C(O)c1cc2ccc(OCc3cccc(Cl)c3)cc2oc1=O	Not Active			1.8	> 55		
CCOC(=O)c1cc2cc(O)ccc2oc1=O			49.1	10.1	4.9		
CC(=O)c1cc2cc(Cl)ccc2oc1=O	Not Active			17.7	> 5.6		

The remaining lines, values ahead:

inhibition (INH) [1]	inhibition at 100 µM [2] [%]	IC50 [3] [µM]	IC50 [4] [µM]	Ratio IC50 (Homo sapiens)	inhibition (INH) [2]	inhibition at 100 µM [1] [%]	Compound
		40.5	27.1	1.5			O=C(c1ccccc1)c1cc2cccc(O)c2oc1=O
			2.01	> 50		40	CC(=O)c1cc2c(ccc3ccccc32)oc1=O
Not Active	40						COc1ccc2cc(C(=O)c3ccccc3)c(=O)oc2c1
Not Active	40						Cc1ccc2oc(=O)c(C(=O)c3ccccc3)cc2c1
Not Active					Not Active		O=C(c1ccccc1)c1cc2c(ccc3ccccc32)oc1=O
Not Active					Not Active		O=C(c1ccccc1)c1cc2ccccc2oc1=O
Not Active	40						O=C(c1ccccc1)c1cc2cc(Br)cc(Br)c2oc1=O
		39.6		< 0.39	Not Active		O=C(NNc1ccccc1[N+](=O)[O-])c1cc2ccccc2oc1=O
Not Active	40						O=C(c1ccccc1)c1cc2cc(Cl)cc(Br)c2oc1=O
Not Active					Not Active		O=C(c1ccccc1)c1cc2cc(Br)ccc2oc1=O
		48	1.19	40.4			O=C(NNc1ccc(Cl)cc1)c1cc2ccccc2oc1=O
Not Active			14.5	> 6.9			CC(=O)c1cc2ccccc2oc1=O [3-ACETYLCOUMARIN]
Not Active					Not Active		O=C(c1ccccc1)c1cc2ccc(O)cc2oc1=O
Not Active					Not Active		CC(C)(C)c1ccc(COc2ccc3cc(C(=O)O)c(=O)oc3c2)cc1
		58.4		< 0.58	Not Active		Cc1ccc(NNC(=O)c2cc3ccccc3oc2=O)cc1
Not Active					Not Active		O=C(c1ccccc1)c1cc2cc(I)cc(I)c2oc1=O
Not Active			23.8	> 4.2			CCN(CC)c1ccc2cc(C(=O)c3ccccc3)c(=O)oc2c1
Not Active					Not Active		O=C(c1ccccc1)c1cc2cc(Cl)ccc2oc1=O
		51.7	18	2.9			O=C(c1ccccc1)c1cc2cc(O)ccc2oc1=O
